This note sets out measurements from patent publication US12421223B2, “Compounds and compositions for treating conditions associated with NLRP activity” (Novartis AG, priority 2018, dated 2025).

The IC50 is the concentration that gives 50% inhibition.

SMILES strings stand for the structures.

The assay deals with IL-1β production in PMA-differentiated THP-1 cells. The experiment in a line: IL-1β production in PMA-differentiated THP-1 cells stimulated with gramicidin (hTHP-1 assay, 2% fetal bovine serum). The assay is classed as cell-based. To be noted: Homo sapiens, hTHP-1 assay containing 2% fetal bovine serum, gramicidin 5 μM, IL-1β by HTRF, read-out: THP-1 IC50 (Average IC50 of compounds in hTHP-1 assay). The procedure:
The following protocol is suitable for testing the activity of the compounds disclosed herein.
Procedure 1: IL-1β Production in PMA-Differentiated THP-1 Cells Stimulated with Gramicidin.
THP-1 cells were purchased from the American Type Culture Collection and sub-cultured according to instructions from the supplier. Cells were cultured in complete RPMI 1640 (containing 10% heat inactivated FBS, penicillin (100 units/ml) and streptomycin (100 μg/ml)), and maintained in log phase prior to experimental setup. Prior to the experiment, compounds were dissolved in dimethyl sulfoxide (DMSO) to generate a 30 mM stock. The compound stock was first pre-diluted in DMSO to 3, 0.34, 0.042 and 0.0083 mM intermediate concentrations and subsequently spotted using Echo550 liquid handler into an empty 384-well assay plate to achieve desired final concentration (e.g. 100, 33, 11, 3.7, 1.2, 0.41, 0.14, 0.046, 0.015, 0.0051, 0.0017 μM). DMSO was backfilled in the plate to achieve a final DMSO assay concentration of 0.37%. The plate was then sealed and stored at room temperature until required.
THP-1 cells were treated with PMA (Phorbol 12-myristate 13-acetate) (20 ng/ml) for 16-18 hours. On the day of the experiment the media was removed and adherent cells were detached with trypsin for 5 minutes. Cells were then harvested, washed with complete RPMI 1640, spun down, and resuspended in RPMI 1640 (containing 2% heat inactivated FBS, penicillin (100 units/ml) and streptomycin (100 μg/ml). The cells were plated in the 384-well assay plate containing the spotted compounds at a density of 50,000 cells/well (final assay volume 50 μl). Cells were incubated with compounds for 1 hour and then stimulated with gramicidin (5 μM) (Enzo) for 2 hours. Plates were then centrifuged at 340 g for 5 min. Cell free supernatant (40 μL) was collected using a 96-channel PlateMaster (Gilson) and the production of IL-1β was evaluated by HTRF (cisbio). The plates were incubated for 18 h at 4° C. and read using the preset HTRF program (donor emission at 620 nm, acceptor emission at 668 nm) of the SpectraMax i3x spectrophotometer (Molecular Devices, software SoftMax 6). A vehicle only control and a dose titration of CRID3 (100-0.0017 μM) were run concurrently with each experiment.
Procedure 2: IL-1β Production in PMA-Differentiated THP-1 Cells Stimulated with Gramicidin.
THP-1 cells were purchased from the American Type Culture Collection and sub-cultured according to instructions from the supplier. Prior to experiments, cells were cultured in complete RPMI 1640 (containing 10% heat inactivated FBS, penicillin (100 units/ml) and streptomycin (100 μg/ml)), and maintained in log phase prior to experimental setup. Prior to the experiment THP-1 were treated with PMA (Phorbol 12-myristate 13-acetate) (20 ng/ml) for 16-18 hours. Compounds were dissolved in dimethyl sulfoxide (DMSO) to generate a 30 mM stock. On the day of the experiment the media was removed and adherent cells were detached with trypsin for 5 minutes. Cells were then harvested, washed with complete RPMI 1640, spun down, resuspended in RPMI 1640 (containing 2% heat inactivated FBS, penicillin (100 units/ml) and streptomycin (100 μg/ml). The cells were plated in a 384-well plate at a density of 50,000 cells/well (final assay volume 50 μl). Compounds were first dissolved in assay medium to obtain a 5× top concentration of 500 μM. 10 step dilutions (1:3) were then undertaken in assay medium containing 1.67% DMSO. 5× compound solutions were added to the culture medium to achieve desired final concentration (e.g. 100, 33, 11, 3.7, 1.2, 0.41, 0.14, 0.046, 0.015, 0.0051, 0.0017 μM). Final DMSO concentration was at 0.37%. Cells were incubated with compounds for 1 hour and then stimulated with gramicidin (5 μM) (Enzo) for 2 hours. Plates were then centrifuged at 340 g for 5 min. Cell free supernatant (40 μL) was collected using a 96-channel PlateMaster (Gilson) and the production of IL-1β was evaluated by HTRF (cisbio). […]

On to `CC(C)(O)c1ncc(C(=O)c2ccnn2-c2c3c(cc4c2CCC4)CCC3)s1` [Compound 103], for which the IC50 was in the range of 5 to 30 µM.
In the case of `CC(C)(O)c1ncc(C(CNC(=O)OCc2ccccc2)c2cnn(-c3c4c(cc5c3CCC5)CCC4)c2)s1` (stereo not drawn) [Compound 101, Benzyl (2-(1-(1,2,3,5,6,7-hexahydro-s-indacen-4-yl)-1H-pyrazol-4-yl)-2-(2-(2-hydroxypropan-2-yl)thiazol-5-yl)ethyl) carbamate] it was 1 to 5 µM; in that of `CC(C)(O)c1ncc(C(CNC(=O)c2ccccc2)c2cnn(-c3c4c(cc5c3CCC5)CCC4)c2)s1` (stereo not drawn) [Compound 114], 5 to 30 µM; in that of `CC(C)(O)c1ncc(C(=O)c2ccn(-c3c4c(cc5c3CCC5)CCC4)n2)s1` [Compound 118], 5 to 30 µM.
In the case of `CC(C)(O)c1ncc([C@@H](NC(=O)OCc2ccccc2)c2ccn(-c3c4c(cc5c3CCC5)CCC4)n2)s1` (single isomer, unassigned) [Compound 116] it was 5 to 30 µM; in that of `CC(C)(O)c1ncc(S(=O)(=O)c2cnn(-c3c4c(cc5c3CCC5)CCC4)c2)s1` [Compound 115, 2-(5-((1-(1,2,3,5,6,7-hexahydro-s-indacen-4-yl)-1H-pyrazol-4-yl)sulfonyl)thiazol-2-yl)propan-2-ol], 5 to 30 µM; in that of `CC(C)(O)c1ncc(C(NC(=O)OCc2ccccc2)c2ccn(-c3c4c(cc5c3CCC5)CCC4)n2)s1` (stereo not drawn) [Compound 102, Benzyl (1-(1,2,3,5,6,7-hexahydros-indacen-4-yl)-1H-pyrazol-3-yl)(2-(2-hydroxypropan-2-yl)thiazol-5-yl)methylcarbamate], 5 to 30 µM.
In the case of `CC(C)(O)c1cnc(S(=O)(=O)c2cnn(-c3c4c(cc5c3CCC5)CCC4)c2)s1` [Compound 104, 2-(2-((1-(1,2,3,5,6,7-hexahydro-s-indacen-4-yl)-1H-pyrazol-4-yl)sulfonyl)thiazol-5-yl)propan-2-ol] it was 5 to 30 µM; in that of `O=C(NCc1cnn(-c2c3c(cc4c2CCC4)CCC3)c1)OCc1ccccc1` [Compound 200, Benzyl ((1-(1,2,3,5,6,7-hexahydro-s-indacen-4-yl)-1H-pyrazol-4-yl)methyl)carbamate], 5 to 30 µM.
